Reference: US9340543B2, “Helquat derivatives, preparation thereof, and use thereof as medicaments” (USTAV ORGANICKE CHEMIE A BIOCHEMIE AKADEMIE VED CR, V.V.I., priority 2013, dated 2016)
Like-named read-outs stand apart in the source and are kept apart here.

Tests used:
Assay type in all cases: cell-based
CCRF-CEM = assay: CellTiter-Glo luminescent cell viability assay (ATP quantification), CCRF-CEM; conditions: acute lymphoblastic leukemia cells, 72 h treatment, viable cells by ATP luminescence
Method: (§1) Influence of the test compounds on viability (proliferation) of cell lines used was investigated in concentration range 0-100 μmol·l^−1.
Suspension cell line CCRF-CEM is a permanent in vitro culture of acute lymphoblastic leukemia. CCRF-CEM cell line was cultivated in RPMI 1640 medium (Sigma-Aldrich, cat. no. R8758) with addition of 2 mmol·l^−1 glutamine (Invitrogen, cat. no. 35050-038), 10% fetal bovine serum (FBS, Sigma-Aldrich, cat. no. F9665), 100 IU/ml peniciline, 100 μg/ml streptomycine (Sigma-Aldrich, cat. no. P0781). Passaging was performed 2-3× a week. Population doubling time of CCRF-CEM cell line was 20 h under the cultivation conditions used.
(§2) In order to test the sensitivity of the cell lines towards the studied helquats, cytotoxity test for cell viability assessment based on ATP quantification in cell lysates was used (CellTiter-Glo® Luminescent Cell Viability Assay, Promega, cat. no. G7571). In this test, ATP in cell lysates is detected using luciferase reaction. Luminescence intensity correlates with the ATP level and thus with quantity of metabolically active (viable) cells. IC50 value serves as the output, that is the concentration of the test compound which leads to 50% reduction in number of viable cells as compared to control, untreated population. To this end, IC50 value reflects efficiency of the test compound with regard to the given cell line.
(§3) Cells in the exponential growth phase were seeded into a 96-well microtiter plate were plated at 3000 cells per well. Each well contained 90 μl of cell suspension. The next day, 10 μl of 10× concentrated test compound solutions were added. The effect of helquats was investigated in concentration range 1 to 100 μmol·l^−1 (e.g. 1; 2.5; 5; 7.5; 10; 15; 25; 50 and 100 μmol·l^−1). Apart from the section containing the concentration series of the test compound, each well contained 2 control columns, the first with pure medium (so called blank) and the second with cells in medium without the test compounds (control). Into wells containing controls and blanks, volume of solvent (water) equal to the volume of added compound solutions was added. After 72 h of incubation with the test compounds viability was determined according to the manufacturer's instructions. In short: microtiter well plate was left 30 min to reach the room temperature after it has been removed from the incubator. Then, into each well, 100 μl of the prepared detection agent was added. Next, the well plate was shaken for 2 min to complete the full lysis. Next, after the well had been left in the dark for 15 min, the luminescence was measured in each well using luminometer (Tecan Genios, Austria).
(§4) IC50 value represents concentration of the test compound, which leads to 50% reduction of viable cells (inhibition of cell growth) after 72 h of the treatment. Each helquat concentration was tested in triplicates in a IC50 quantification and at least 3 independent IC50 quantification experiments were performed. IC50 values over 100 μmol·l^−1 were obtained by extrapolation of data measured in concentration range 0-100 μmol·l^−1 for the given helquat.

Hep G2 = assay: CellTiter-Glo luminescent cell viability assay (ATP quantification), Hep G2; conditions: hepatocellular carcinoma cells, 72 h treatment, viable cells by ATP luminescence
Method: as §1
(§5) Adherent cell line Hep G2 is a permanent in vitro culture derived from liver tissue of a patient with hepatocellular carcinoma. Hep G2 cell line was cultivated in DMEM medium (Sigma-Aldrich, cat. no. M4528) with addition of 2 mmol·l^−1 glutamine (Invitrogen, see above), 10% fetal bovine serum (FBS, Sigma-Aldrich, see above), 100 IU/ml peniciline, 100 μg/ml streptomycine (Sigma-Aldrich, see above). Passaging was performed twice a week. After washing of cells with sterile PBS, the cells were released by 0.25% trypsin/EDTA (Sigma-Aldrich, see above) at 37° C. for 2 minutes. The trypsin was inactivated by addition of 2 volumes of complete medium, cells were then centrifuged (250×g, 5 min), resuspended, and transferred in the amount needed into a new cultivation bottle with fresh medium. Population doubling time of Hep G2 cell line was 28 h under the cultivation conditions used.
as §2
as §3, with “In short: microtiter well plate was left 30 min to reach the room temperature after it has been removed from the incubator. Then, into each well, 100 μl of the prepared detection agent was added. Next, the well plate was shaken for 2 min to complete the full lysis.” left out, “Austria). […]” for “Austria).”

LoVo = assay: CellTiter-Glo luminescent cell viability assay (ATP quantification), LoVo; conditions: colorectal carcinoma cells, 72 h treatment, viable cells by ATP luminescence, class symbols
Method: as §1
as §5, with “LoVo” for “Hep G2”, “from” for “from liver”, “colorectal” for “hepatocellular”, “D8437)” for “M4528)”, “39” for “28”
as §2, §3, §4

| IC50 (CCRF-CEM) | IC50 (LoVo) | IC50 (CCRF-CEM; Homo sapiens, CCRF-CEM) | IC50 (LoVo; Homo sapiens, LoVo) | SMILES | IC50 (Hep G2; read-out: IC50 HepG2) | IC50 (Hep G2; Homo sapiens, HepG2) |
| --- | --- | --- | --- | --- | --- | --- |
| < 10 µM | 11 to 50 µM | – | – | Cc1c(C)c2c(c3c1CC[n+]1ccc(/C=C/c4ccc(N(C)C)cc4)cc1-3)-c1c3ccccc3cc[n+]1CC2 [(M)-1, (M)-(E)-13-(4-(dimethylamino)styryl)-6,7-dimethyl-4,5,8,9-tetrahydroiso-quinolino[1,2-a]pyrido[1,2-k][2,9]phenanthroline-3,10-diium trifluoromethanesulfonate] | 11 to 50 µM | – |
| – | – | 11 to 50 µM | 11 to 50 µM | COc1ccc(/C=C/c2cc[n+]3c(c2)-c2c(c(C)c(C)c4c2-c2c5ccccc5cc[n+]2CC4)CC3)cc1 [(M)-6, (M)-(E)-13-(4-methoxystyryl)-6,7-dimethyl-4,5,8,9-tetrahydroisoquinolino[1,2-a]pyrido[1,2-k][2,9]phenanthroline-3,10-diium trifluoromethanesulfonate] | – | 11 to 50 µM |
| < 10 µM | 11 to 50 µM | – | – | COc1ccc2cc(/C=C/c3cc[n+]4c(c3)-c3c(c(C)c(C)c5c3-c3c6ccccc6cc[n+]3CC5)CC4)ccc2c1 [(M)-7, (M)-(E)-13-(2-(6-methoxynaphthalene-2-yl)vinyl)-6,7-dimethyl-4,5,8,9-tetrahydroisoquinolino[1,2-a]pyrido[1,2-k][2,9]phenanthroline-3,10-diium trifluoromethanesulfonate] | 11 to 50 µM | – |
